Experimental data as given in patent US20060058388A1, “Methods for treating ocular diseases via introxide and or polyhydroxy acid containing compounds” (priority 2003, published 2006).

How the values were obtained:
[1] = tested on: human elastin promoter linked to a luciferase reporter gene construct in human skin fibroblasts; assay: human elastin promoter/luciferase assay (UV-induced promoter induction); type: cell-based
Procedure: Thus, gluconolactone protects against UV-induced gene induction in cells containing the human elastin promoter/luciferase construct. […] The ED50 for cell cultures with tempol but not receiving any ultraviolet radiaiton was approximately 100 mM.
Gluconolactone was prepared in PBS.
4-Hydroxy-tempo (tempol) was prepared in PBS.

[2] = tested on: human skin fibroblasts containing the human elastin promoter linked to a luciferase reporter gene construct; assay: Neutral Red Cytotoxicity/Phototoxicity Assay
Procedure: Immortalized human skin fibroblasts containing the human elastin promoter linked to a luciferase reporter gene construct were seeded in 96-well plates at a density of 7,500 cells per well (doubling time ˜30 hours). Cells were grown in 75 cm^2 tissue culture flasks in MEM (without phenol red) supplemented with 10% FBS, 25 mM HEPES, 2 mM l-glutamine, 1% nonessential amino acids, 50 μg/mL Gentamycin, and 5 μg/mL Zeocin. Cell cultures were incubated in a 37° C. incubator (containing 5% CO2) when not being manipulated or irradiated. Cell cultures were washed with Phosphate Buffered Saline (PBS) with Ca^++ and Mg^++ when media or compounds were removed and before ultraviolet radiation (UVR).
Gluconolactone was prepared in PBS. Concentrations of 0.5, 1.0, 2.5, 5.0, 7.5, 10.0, 12.5, and 25% (w/v) were prepared and adjusted to a pH of 7.2. Gluconolactone was incubated 15 minutes prior to and in contact with cell cultures during UV-irradiation.
4-Hydroxy-tempo (tempol) was prepared in PBS. Concentrations of tempol of 10, 25, 50, 62.5, 100, 125, 250, and 500 mM were prepared and adjusted to a pH of 7.2. Tempol was incubated 15 minutes prior to and in contact with cell cultures during UV-irradiation.
Cell cultures were UV-irradiated with Westinghouse 40-Watt fluorescent sunlamps (FS-40 lamps) with doses of either 2 or 5 mJ/cm^2, based on a PMA2100 radiometer (Solar light Company, Philadelphia, Pa.) equipped with a PMA2101 erythema weighted detector.
Fifteen hours after UV-irradiation with the FS-40 lamps, cell cultures were washed with PBS and Neutral Red Medium (Neutral Red dye+supplemented MEM) was added for a 3 hours (in 37° C. incubators). After the incubation period, cells are washed with PBS and the Neutral Red Desorb solution (50% Ethanol, 49% distilled water, 1% Glacial Acetic Acid) was added. Plates are shaken for 10 minutes at 500 rpm and then the absorption was read at 540 nm using THERMOmax plate reader and SOFTmax PRO software.

Structure (SMILES)	protection against UV-induced promoter induction ([1]; human elastin promoter/luciferase fibroblasts, UV-irradiated)	phototoxicity or cytotoxicity [2]	ED50 for phototoxicity ([2]; human, pH 7.2)	protection against toxicity ([1]; human elastin promoter/luciferase assay, increasing ultraviolet doses)	protection against toxicity ([2]; neutral red assay, increasing ultraviolet doses)	ED50 for cell cultures ([2]; not receiving any ultraviolet radiation)	ED50 for cell cultures ([2]; ultraviolet radiation dose 2 mJ/cm^2)	ED50 for cell cultures ([2]; ultraviolet radiation dose 5 mJ/cm^2) [mM]
O=C1O[C@H](CO)[C@@H](O)[C@H](O)[C@H]1O [Glucolactone, Gluconolactone]	approximately 50%	did not demonstrate significant phototoxicity or cytotoxicity	approximately 102 g/L	–	–	–	–	–
CC1(C)CC(O)CC(C)(C)N1[O] [tempol, 4-Hydroxy-tempo]	–	–	–	over 50%	over 50%	approximately 100 mM	approximately 150 mM	~250
